Article PMC7587962, “Evaluation of Cytotoxicity and α-Glucosidase Inhibitory Activity of Amide and Polyamino-Derivatives of Lupane Triterpenoids” (Molecules, 2020)
Read-outs that look alike come from different tables or passages of the source.

Key:
NCI-H460 = assay: NCI-60 SRB screen: non-small cell lung cancer NCI-H460; format: cell-based; conditions: Homo sapiens, 48 h, NCI-H460
SK-MEL-2 = assay: NCI-60 SRB screen: melanoma SK-MEL-2; format: cell-based, human; conditions: SK-MEL-2
COLO 205 = assay: NCI-60 SRB screen: colon cancer COLO 205; format: cell-based, human; conditions: COLO 205
SNB-19 = assay: NCI-60 SRB screen: CNS cancer SNB-19; format: cell-based, human; conditions: SNB-19
Breast cancer subpanel = assay: NCI-60 screen, subpanel Breast cancer
UO-31 = assay: NCI-60 SRB screen: renal cancer UO-31; format: cell-based, human; conditions: UO-31
[1] = system: 60 human tumor cell lines; assay: cells
HCT-15 = assay: NCI-60 SRB screen: colon cancer HCT-15; format: cell-based, human; conditions: HCT-15
HL-60(TB) = assay: NCI-60 SRB screen: leukemia HL-60(TB); format: cell-based; conditions: Homo sapiens, 48 h, HL-60(TB)
Leukemia subpanel = assay: NCI-60 screen, subpanel Leukemia
OVCAR-3 = assay: NCI-60 SRB screen: ovarian cancer OVCAR-3; format: cell-based, human; conditions: OVCAR-3
NSCL cancer subpanel = assay: NCI-60 screen, subpanel NSCL cancer
MDA-MB-435 = assay: NCI-60 SRB screen: melanoma MDA-MB-435; format: cell-based, human; conditions: MDA-MB-435
HCT-116 = assay: NCI-60 SRB screen: colon cancer HCT-116; format: cell-based; conditions: Homo sapiens, 48 h, HCT-116
[2] = system: 60 human tumor cell lines; conditions: single dose 10 µM
Melanoma subpanel = assay: NCI-60 screen, subpanel Melanoma
CNS cancer subpanel = assay: NCI-60 screen, subpanel CNS cancer
SF-539 = assay: NCI-60 SRB screen: CNS cancer SF-539; format: cell-based, human; conditions: SF-539
KM12 = assay: NCI-60 SRB screen: colon cancer KM12; format: cell-based, human; conditions: KM12
SF-268 = assay: NCI-60 SRB screen: CNS cancer SF-268; format: cell-based, human; conditions: SF-268
HT29 = assay: NCI-60 SRB screen: colon cancer HT29; format: cell-based; conditions: Homo sapiens, HT29
MDA-MB-231/ATCC = assay: NCI-60 SRB screen: breast cancer MDA-MB-231/ATCC; format: cell-based; conditions: Homo sapiens, 48 h
MDA-MB-468 = assay: NCI-60 SRB screen: breast cancer MDA-MB-468; format: cell-based, human
LOX IMVI = assay: NCI-60 SRB screen: melanoma LOX IMVI; format: cell-based, human
HCC-2998 = assay: NCI-60 SRB screen: colon cancer HCC-2998; format: cell-based, human; conditions: HCC-2998
UACC-62 = assay: NCI-60 SRB screen: melanoma UACC-62; format: cell-based, human; conditions: UACC-62
K-562 = assay: NCI-60 SRB screen: leukemia K-562; format: cell-based, human; conditions: K-562
Renal Cancer subpanel = assay: NCI-60 screen, subpanel Renal Cancer
SK-MEL-5 = assay: NCI-60 SRB screen: melanoma SK-MEL-5; format: cell-based, human; conditions: SK-MEL-5
IGROV1 = assay: NCI-60 SRB screen: ovarian cancer IGROV1; format: cell-based, human; conditions: IGROV1
ACHN = assay: NCI-60 SRB screen: renal cancer ACHN; format: cell-based, human
NCI-H522 = assay: NCI-60 SRB screen: non-small cell lung cancer NCI-H522; format: cell-based, human; conditions: NCI-H522
A549/ATCC = assay: NCI-60 SRB screen: non-small cell lung cancer A549/ATCC; format: cell-based, human; conditions: A549/ATCC
PC-3 = assay: NCI-60 SRB screen: prostate cancer PC-3; format: cell-based, human; conditions: PC-3
SW-620 = assay: NCI-60 SRB screen: colon cancer SW-620; format: cell-based; conditions: Homo sapiens, 48 h, SW-620
NCI-H23 = assay: NCI-60 SRB screen: non-small cell lung cancer NCI-H23; format: cell-based, human; conditions: NCI-H23
[3] = single dose 10 µM, read-out: Percentage Cell Growth
[4] = five concentrations, SRB, read-out: GI50
[5] = Homo sapiens, five concentrations, 48 h, SRB, read-out: GI50

## CC(=O)OCC12CCC(C(C)C(N)=O)C1C1CCC3C4(C)CCC(OC(C)=O)C(C)(C)C4CCC3(C)C1(C)CC2 [Compound 4, 3β,28-Diacetyloxy-(20R)-29-amino-29-oxolupane]
NCI-H460; [3]
  activity at 10 µM: -61.8%
NCI-H460; [4]
  GI50: 13.4 µM
SK-MEL-2; [5]
  GI50: 10.8 µM
SK-MEL-2; single dose 10 µM
  Percentage Cell Growth: −77.63%
COLO 205; single dose 10 µM
  Percentage Cell Growth: −52.98%
COLO 205; [5]
  GI50: 4.31 µM
SNB-19; [5]
  GI50: 11.9 µM
SNB-19; single dose 10 µM
  Percentage Cell Growth: −39.95%
Breast cancer subpanel
  MID b, average sensitivity of all cell line of particular subpanel: 7.09 µM
  Selectivity, ratio MID a: MID b: 1.11
UO-31; [5]
  GI50: 7.57 µM
UO-31; single dose 10 µM
  Percentage Cell Growth: −97.54%
[1]; read-out: GI50 ranges against all panels of NCI60
  GI50: 1.1 to 54.4 µM
[1]; read-out: MID a, average sensitivity of all cell line (GI50-MID)
  GI50: 7.87 µM
HCT-15; single dose 10 µM
  Percentage Cell Growth: −44.10%
HCT-15; [5]
  GI50: 4.04 µM
HL-60(TB); [3]
  activity at 10 µM: -23.1%
HL-60(TB); [4]
  GI50: 2760 nM
Leukemia subpanel
  MID b, average sensitivity of all cell line of particular subpanel: 3.55 µM
  Selectivity, ratio MID a: MID b: 2.22
OVCAR-3; [5]
  GI50: 3.95 µM
OVCAR-3; single dose 10 µM
  Percentage Cell Growth: −76.19%
NSCL cancer subpanel
  MID b, average sensitivity of all cell line of particular subpanel: 7.50 µM
  Selectivity, ratio MID a: MID b: 1.05
MDA-MB-435; [5]
  GI50: 5.23 µM
MDA-MB-435; single dose 10 µM
  Percentage Cell Growth: −63.78%
HCT-116; [3]
  activity at 10 µM: -84.2%
HCT-116; [4]
  GI50: 3.57 µM
[2]; cell lines with negative growth
  cancer cell lethality, range of percentage growth: −8.82% to −97.54%
[2]; number of cell lines
  cases of cancer cell lethality: 57
Melanoma subpanel
  MID b, average sensitivity of all cell line of particular subpanel: 7.80 µM
  Selectivity, ratio MID a: MID b: 1.01
CNS cancer subpanel
  MID b, average sensitivity of all cell line of particular subpanel: 7.27 µM
  Selectivity, ratio MID a: MID b: 1.08
SF-539; [5]
  GI50: 5.52 µM
SF-539; single dose 10 µM
  Percentage Cell Growth: −83.91%
KM12; [5]
  GI50: 3.86 µM
KM12; single dose 10 µM
  Percentage Cell Growth: −62.05%
SF-268; [5]
  GI50: 6.95 µM
SF-268; single dose 10 µM
  Percentage Cell Growth: −61.04%
HT29; HT-29, 48 h, single dose 10 µM, read-out: Percentage Cell Growth
  activity at 10 µM: -77.7%
HT29; HT-29, five concentrations, 48 h, SRB, read-out: GI50
  GI50: 3.73 µM
MDA-MB-231/ATCC; MDA-MB-231/ATCC, single dose 10 µM, read-out: Percentage Cell Growth
  activity at 10 µM: -88.6%
MDA-MB-231/ATCC; MDA-MB-231, MDA-MB-31/ATCC, five concentrations, SRB, read-out: GI50
  GI50: 11.8 µM
MDA-MB-468; [5]
  GI50: 3.96 µM
MDA-MB-468; single dose 10 µM
  Percentage Cell Growth: −40.40%
LOX IMVI; [5]
  GI50: 10.2 µM
LOX IMVI; single dose 10 µM
  Percentage Cell Growth: −85.52%
HCC-2998; single dose 10 µM
  Percentage Cell Growth: −68.10%
HCC-2998; [5]
  GI50: 10.4 µM
UACC-62; [5]
  GI50: 5.46 µM
UACC-62; single dose 10 µM
  Percentage Cell Growth: −82.97%
K-562; Homo sapiens, K562, five concentrations, 48 h, SRB, read-out: GI50
  GI50: 4.09 µM
K-562; single dose 10 µM
  Percentage Cell Growth: 3.10%
Renal Cancer subpanel
  MID b, average sensitivity of all cell line of particular subpanel: 8.12 µM
  Selectivity, ratio MID a: MID b: 0.97
SK-MEL-5; [5]
  GI50: 3.8 µM
SK-MEL-5; single dose 10 µM
  Percentage Cell Growth: −71.94%
IGROV1; Homo sapiens, IGROV-1, five concentrations, 48 h, SRB, read-out: GI50
  GI50: 13.2 µM
IGROV1; single dose 10 µM
  Percentage Cell Growth: −71.25%
ACHN; [5]
  GI50: 5.78 µM
ACHN; single dose 10 µM
  Percentage Cell Growth: −75.68%
NCI-H522; [5]
  GI50: 4.94 µM
NCI-H522; single dose 10 µM
  Percentage Cell Growth: −61.13%
A549/ATCC; single dose 10 µM
  Percentage Cell Growth: 9.89%
A549/ATCC; [5]
  GI50: 3.97 µM
PC-3; [5]
  GI50: 2670 nM
PC-3; single dose 10 µM
  Percentage Cell Growth: −47.42%
SW-620; [3]
  activity at 10 µM: -55.1%
SW-620; [4]
  GI50: 7.7 µM
NCI-H23; [5]
  GI50: 9.42 µM
NCI-H23; single dose 10 µM
  Percentage Cell Growth: −40.35%
